According to patent US20240174618A1, “SUBSTITUTED (2-HETEROARYLOXYPHENYL)SULFONATES, SALTS THEREOF AND THEIR USE AS HERBICIDAL AGENTS” (Bayer Aktiengesellschaft, priority 2021, published 2024):

Legend:
Type in all cases: in vivo
Kochia scoparia (KCHSC) [1] = assay: E. Herbicidal post-emergence efficacy, KCHSC
Procedure: (§1) Seeds of monocotyledonous and dicotyledonous weeds and crop plants were placed in sandy loam in plastic or organic planting pots, covered with soil and cultivated in a greenhouse under controlled growth conditions. 2 to 3 weeks after sowing, the test plants were treated at the one-leaf stage. The compounds of the invention, formulated in the form of wettable powders (WP) or as emulsion concentrates (EC), were then sprayed onto the green parts of the plants as aqueous suspension or emulsion with addition of 0.5% additive at a water application rate of 600 l/ha (converted). After the test plants had been kept in the greenhouse under optimum growth conditions for about 3 weeks, the activity of the preparations was rated visually in comparison to untreated controls.
(§2) For example, • 100% efficacy=plants have died, • 0% action=like untreated control plants.
(§3) Tables E1a to E12b below show the effects of selected compounds of the general formula (I) according to table 1 on various harmful plants at an application rate corresponding to 320 g/ha or less, which were obtained by the experimental procedure mentioned above.

Veronica persica (VERPE) = assay: E. Herbicidal post-emergence efficacy, VERPE
Procedure: as §1, §2, §3

Viola tricolor (VIOTR) [2] = assay: C. Herbicidal pre-emergence efficacy, VIOTR; conditions: application rate 320 g/ha
From the text: (§4) Seeds of monocotyledonous and dicotyledonous weed plants and crop plants were placed in plastic or organic planting pots and covered with soil. The compounds of the invention, formulated in the form of wettable powders (WP) or as emulsion concentrates (EC), were then applied to the surface of the covering soil as aqueous suspension or emulsion with addition of 0.5% additive at a water application rate equivalent to 600 l/ha (converted). After the treatment, the pots were placed in a greenhouse and kept under good growth conditions for the test plants. After about 3 weeks, the efficacy of the preparations was scored visually in comparison with untreated controls as percentages. For example, • 100% efficacy=plants have died, • 0% efficacy=like untreated control plants.
(§5) Tables C1a to C14b below show the effects of selected compounds of the general formula (I) according to table 1 on various harmful plants at an application rate corresponding to 320 g/ha or less, which were obtained by the experimental procedure mentioned above.

[3] = tested on: Triticum aestivum (TRZAS); assay: F. Post-emergence effect on useful plants, TRZAS; conditions: useful plant, application rate 80 g/ha
Procedure: as §1, §2
Tables F1a to F4 below show the effects of selected compounds of the general formula (I) according to table 1 on various useful plants at an application rate corresponding to 320 g/ha or less, which were obtained by the experimental procedure mentioned above.

[4] = tested on: Triticum aestivum (TRZAS); assay: D. Pre-emergence effect on useful plants, TRZAS; conditions: useful plant
From the text: as §4
(§6) Tables D1a to D5b below show the effects of selected compounds of the general formula (I) according to table 1 on various useful plants at an application rate corresponding to 320 g/ha or less, which were obtained by the experimental procedure mentioned above.

Zea mays (ZEAMX) = assay: D. Pre-emergence effect on useful plants, ZEAMX; conditions: useful plant
From the text: as §4, §6

[5] = tested on: Amaranthus retroflexus (AMARE); assay: E. Herbicidal post-emergence efficacy, AMARE
Procedure: as §1, §2, §3

Viola tricolor (VIOTR) [6] = assay: E. Herbicidal post-emergence efficacy, VIOTR
Procedure: as §1, §2, §3

Kochia scoparia (KCHSC) [7] = assay: C. Herbicidal pre-emergence efficacy, KCHSC
From the text: as §4, §5

[8] = tested on: Amaranthus retroflexus (AMARE); assay: C. Herbicidal pre-emergence efficacy, AMARE; conditions: scored after about 3 weeks
From the text: as §4, §5

Brassica napus (BRSNW) = assay: D. Pre-emergence effect on useful plants, BRSNW; conditions: useful plant, application rate 80 g/ha
From the text: as §4, §6

[9] = tested on: Pharbitis purpurea (PHBPU); assay: E. Herbicidal post-emergence efficacy, PHBPU
Procedure: as §1, §2, §3

N#Cc1cccc(Oc2ncc(Cl)cn2)c1OS(=O)(=O)CC1CC1(Cl)Cl (stereo not drawn) [Example I-78]
Post-emergence efficacy against KCHSC in % (Kochia scoparia (KCHSC) [1]; application rate 80 g/ha): 100% | Post-emergence efficacy against KCHSC in % (Kochia scoparia (KCHSC) [1]; application rate 320 g/ha): 100% | Post-emergence efficacy against VERPE in % (Veronica persica (VERPE); application rate 80 g/ha): 100% | Post-emergence efficacy against VERPE in % (Veronica persica (VERPE); application rate 320 g/ha): 100% | Pre-emergence efficacy against VIOTR in % (Viola tricolor (VIOTR) [2]): 100% | Post-emergence efficacy against TRZAS in % [3]: 0% | Pre-emergence efficacy against TRZAS in % ([4]; application rate 80 g/ha): 0% | Pre-emergence efficacy against TRZAS in % ([4]; application rate 320 g/ha): 0% | Pre-emergence efficacy against ZEAMX in % (Zea mays (ZEAMX); application rate 80 g/ha): 0% | Pre-emergence efficacy against ZEAMX in % (Zea mays (ZEAMX); application rate 320 g/ha): 20% | Post-emergence efficacy against AMARE in % ([5]; application rate 80 g/ha): 90% | Post-emergence efficacy against AMARE in % ([5]; application rate 320 g/ha): 100% | Post-emergence efficacy against VIOTR in % (Viola tricolor (VIOTR) [6]; application rate 80 g/ha): 90% | Post-emergence efficacy against VIOTR in % (Viola tricolor (VIOTR) [6]; application rate 320 g/ha): 100% | Pre-emergence efficacy against KCHSC in % (Kochia scoparia (KCHSC) [7]; application rate 80 g/ha): 100% | Pre-emergence efficacy against KCHSC in % (Kochia scoparia (KCHSC) [7]; application rate 320 g/ha): 100% | Pre-emergence efficacy against AMARE ([8]; 80 g/ha): 100% | Pre-emergence efficacy against AMARE ([8]; 320 g/ha): 100% | Pre-emergence efficacy against BRSNW in % (Brassica napus (BRSNW)): 20% | Post-emergence efficacy against PHBPU in % ([9]; application rate 80 g/ha): 90% | Post-emergence efficacy against PHBPU in % ([9]; application rate 320 g/ha): 100%
